Experimental data: patent publication US11957671B2, “Benzodioxane modulators of leukotriene A4 hydrolase (LTA4H) for prevention and treatment of aging-associated diseases” (Alkahest, Inc., priority 2021, dated 2024)

Tests used:
Format in all cases: in vivo, mouse
[1] = tested on: aged wild type (WT; C57BL/6) mice; experiment: Y-Maze; conditions: 10 mg/kg PO daily
Experimental: A large Y-maze test assessed short-term memory of the familiarity of a specific context. Mice were brought to the experimental room for at least 30 min of acclimation to the experimental room conditions (dim lighting) prior to testing. For the initial training trial, the mouse was placed at the end of one arm of a large Y-maze designated “start arm” (arm length: 15 inches). The third arm of the maze was blocked off, allowing the mouse to explore two of the three arms freely (“start arm” and “familiar arm”) for 5 min. Each arm contained spatial cues. Three hours later, the mouse was placed back into the maze in the “start arm,” and allowed to explore all three arms with the third arm unblocked (“novel arm”). Movements in and out of each arm were tracked using automated tracking software (ANY-maze). Testing was performed under dim lighting, and the apparatus was cleaned with 70% ethanol between trials. The time spent and number of entireties into the “novel arm” and “familiar arm” were analyzed, as well as total distance travelled and velocity as measures of general locomotor activity.
(§1) Three independent cohorts of aged wild type (WT; C57BL/6) mice between twenty to twenty-two months of age (20-22 mo) were homogenized into two (2) groups by body weight, total distance travelled in the open field test, and average velocity in the open field test. Group 1 was administered vehicle control PO daily. Group 2 was administered 10 mg/kg of the LTA4H inhibitor Compound 1 PO daily. Both groups were dosed for either 10 days or 4 weeks daily. Behavioral assays were run during the last week of dosing and animals were sacrificed at the end of the study for histological and molecular assays.

[2] = tested on: aged wild type (WT; C57BL/6) mice; experiment: Iba-1 histology in hippocampus; conditions: 4 weeks of dosing
Experimental: Brains were collected following saline perfusion and separated by mid-sagittal slice with one-half drop fixed in freshly prepared 4% PFA. PFA was changed to 30% sucrose 24-48 hours later. A second change to 30% sucrose occurred 24 hours later. Brain tissue was sectioned or lysed and analyzed for GFAP, AQP4, or IBA1 by standard histological methods. Images were acquired using a confocal microscope or Axioscan slide scanner.
as §1

[3] = tested on: purified endothelial cells from the brains of aged C57BL/6 mice; experiment: Microbulk qPCR of endothelial genes; conditions: 1 month bid P.O., 1 mg/kg Compound 1 or 2.5 mg/kg SC57461A
Experimental: (§2) Downregulation of the detrimental genes Bsg, Gbp4, and CXCL12 in purified endothelial cells from the brains of mice treated with LTA4H inhibitors Compound 1 or SC57461A were compared to those of vehicle treated mice. Gene expression was measured by qPCR from 500 sorted endothelial cells and was normalized to GAPDH control.
Aged C57BL/6 mice (21 months of age) were treated for 1 month bid P.O. with vehicle, 1 mg/kg Compound 1, or 2.5 mg/kg SC57461A (n=3 mice per treatment group). One cortical cap (cortex and hippocampus) from each mouse was isolated and cells were dissociated using Miltenyi Neutral Dissociation Kit (#130-092-628). Cells were sorted using Sony Multi-Application Cell Sorter MA900 into clean, RNAase free 200 uL PCR strip tube with 5 uL RNAlater at a concentration of 500 cells per tube. RNA was isolated follow kit protocol for Qiagen RNeasy Micro Kit (#74004). cDNA was synthesized using SuperScript III Kit Protocol and qPCR assays were run using TaqMan or SYBR green primers.
as §2, with “beneficial gene, Plat,” for “detrimental genes Bsg, Gbp4, and CXCL12”

## O=C(O)C1CCN(Cc2ccc([C@H]3COc4ccccc4O3)cc2)CC1 [Example 1, 1-{4-[(2S)-2,3-dihydro-1,4-benzodioxin-2-yl]benzyl}piperidine-4-carboxylic acid]
[1]; after 12 days of treatment
  entries into the N and F arms during testing: enter the N and F arms equally
  percent time spent in the novel (N) or familiar (F) arms during testing: significantly more time in the novel arm
[1]; after 18 days of treatment
  percent time spent in the novel (N) or familiar (F) arms during testing: significantly improved
  percentage of entries into the N and F arms: enter the novel arm significantly more than the familiar arm
[1]; after 26 days of treatment
  percentage of entries into the N and F arms: enter the novel arm significantly more than the familiar arm
[2]
  Iba-1 percent thresholded area in the hippocampus: reduction in Iba-1 percent thresholded area
[3]
  Bsg gene expression: down regulation of Bsg gene expression
  CXCL12 gene expression: down regulation of CXCL12 gene expression
  Gpb4 gene expression: down regulation of Gpb4 gene expression
  Plat gene expression: up regulation of Plat gene expression
